Results taken from patent publication US20090203605A1, “Methods For Treating A Condition Characterized By Dysfunction In Protein Homeostasis” (THE SCRIPPS RESEARCH INSTITUTE, priority 2008, published 2009).

Columns and labels:
L444P GC = target: T1, L444P GC (Homo sapiens, UniProt P04062, L483P); assay: GC activity assay in L444P GC Gaucher patient-derived fibroblasts; assay type: cell-based; conditions: for L444P GC activity, maximum fold increase: 30 μM
T1 construct: a L444P GC Gaucher fibroblast cell line (GM08760); host or cells: Gaucher patient-derived skin fibroblasts
T1 sequence (P04062 40-536 L483P): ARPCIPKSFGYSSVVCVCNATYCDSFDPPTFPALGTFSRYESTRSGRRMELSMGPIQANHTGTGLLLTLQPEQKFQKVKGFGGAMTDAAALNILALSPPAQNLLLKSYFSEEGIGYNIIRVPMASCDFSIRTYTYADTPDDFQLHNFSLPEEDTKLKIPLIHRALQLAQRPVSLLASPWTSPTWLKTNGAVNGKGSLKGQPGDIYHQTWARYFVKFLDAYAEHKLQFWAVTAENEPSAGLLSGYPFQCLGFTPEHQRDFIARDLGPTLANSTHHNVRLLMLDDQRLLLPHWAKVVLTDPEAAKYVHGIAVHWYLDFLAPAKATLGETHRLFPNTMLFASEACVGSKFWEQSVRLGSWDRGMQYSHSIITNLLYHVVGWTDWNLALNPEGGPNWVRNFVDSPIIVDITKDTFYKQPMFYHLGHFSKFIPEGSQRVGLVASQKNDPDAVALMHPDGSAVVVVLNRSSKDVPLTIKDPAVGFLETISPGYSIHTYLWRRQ

Ca^2+ channel = conditions: cited from earlier work; for IC50: previously reported, Li et al., J Med Chem 35: 3246-3253, 1992, read-out: Ca^2+ channel blocker IC50
G269S/1278insTATC HexA = target: T2, G269S/1278insTATC HexA (Homo sapiens, UniProt P06865, G269S); assay: Hex α-site cell assay in Tay-Sachs fibroblast cell line; assay type: cell-based; conditions: ADNJ 20 to 50 μM, exposed once without media changes, after 192 h
T2 construct: host or cells: Tay-Sachs patient fibroblasts, lysed for the MUGS assay
T2 sequence (P06865 89-529 G269S): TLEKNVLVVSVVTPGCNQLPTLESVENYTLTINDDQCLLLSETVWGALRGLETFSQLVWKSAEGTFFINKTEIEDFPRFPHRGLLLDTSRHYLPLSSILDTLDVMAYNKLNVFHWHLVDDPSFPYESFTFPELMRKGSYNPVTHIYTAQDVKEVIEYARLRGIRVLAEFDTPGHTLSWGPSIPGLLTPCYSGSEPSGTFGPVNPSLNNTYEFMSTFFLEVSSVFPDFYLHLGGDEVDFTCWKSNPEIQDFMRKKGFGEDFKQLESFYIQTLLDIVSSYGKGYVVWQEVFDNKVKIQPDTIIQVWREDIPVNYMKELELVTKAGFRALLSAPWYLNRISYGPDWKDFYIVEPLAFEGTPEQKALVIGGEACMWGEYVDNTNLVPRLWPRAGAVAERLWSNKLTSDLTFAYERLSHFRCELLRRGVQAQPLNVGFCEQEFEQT
T2 sequence (P07686 122-556 partner): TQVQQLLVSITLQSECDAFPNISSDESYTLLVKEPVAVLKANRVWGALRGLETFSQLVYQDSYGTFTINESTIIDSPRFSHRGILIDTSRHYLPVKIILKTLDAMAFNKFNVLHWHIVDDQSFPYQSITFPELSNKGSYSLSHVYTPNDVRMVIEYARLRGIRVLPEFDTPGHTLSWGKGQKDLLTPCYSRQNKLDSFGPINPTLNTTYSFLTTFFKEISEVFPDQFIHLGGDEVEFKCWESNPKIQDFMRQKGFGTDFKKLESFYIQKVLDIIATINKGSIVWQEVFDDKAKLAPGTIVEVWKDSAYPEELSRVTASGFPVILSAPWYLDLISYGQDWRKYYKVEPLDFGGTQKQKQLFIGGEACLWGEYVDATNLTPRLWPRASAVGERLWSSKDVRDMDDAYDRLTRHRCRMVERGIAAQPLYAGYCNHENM
Excerpt: We therefore evaluated the ability of these proteostasis regulators to restore partial function to HexA, a heterodimeric enzyme composed of α- and β-subunits that degrades GM2 gangliosides in the lysosome. Mutations in the β-hexosaminidase A α-subunit can cause extensive ERAD of HexA, leading to Tay-Sachs disease (TSD). Jeyakumar et al., Neuropathol Appl Neurobiol 28: 343-357, 2002. HexA activity was studied in a compound heterozygous fibroblast cell line (GM13204), harboring one of the most prevalent β-hexosaminidase A α-subunit mutations (G269S) found in Tay-Sachs patients and a second mutated HexA allele (1278insTATC) with a stop codon. […] Tropak et al., J Biol Chem 279: 13478-13487, 2004.
The Hex α-site cell assay has been previously described. Tropak et al., J Biol Chem 279: 13478-13487, 2004. Cells were plated as described for the GC assay. After 1 to 8 days of incubation the medium was removed, cells were washed with PBS, and lysed with 60 μl of 10 mM citrate/phosphate buffer pH 4.2 (CP buffer) containing 0.5% human serum albumin and 0.5% Triton X-100. 30 μl of aliquots were transferred to a 96-well plate and Hex α-site activity was measured by adding 30 μl of 3.2 mM MUGS in CP buffer to each well and incubating the plates at 37° C. for 1 to 7 hour. The reaction was stopped by adding 200 μl of 0.1 M 2-amino-2-methyl-1-propanol pH 10.5 and the fluorescence was measured (excitation 365 nm, emission 450 nm).

[1] = 7 days, intact cell GC activity assay (FIG. 19D)

N.N.N.N.N.N.N.N.N.N.N.N.N.N.[Cl-].[Cl-].[Cl-].[Cl-].[Cl-].[Cl-].[O-2].[O-2].[Ru+3].[Ru+3].[Ru+4] [ruthenium red]
effect on L444P GC activity, intact cell GC enzyme assay (L444P GC; thermosensitive TRP channel modulators, 5-day incubation): notably increased

CNCCN1C(=O)[C@H](O)[C@H](c2ccc(O)cc2)Sc2ccccc21 [Compound 4, (2S,3S)-2,3-Dihydro-3-hydroxy-2-(4-hydroxyphenyl)-5-[2-(methylamino)ethyl]-1,5-benzothiazepin-4(5H)-one]
L444P GC activity, maximum fold increase (L444P GC; [1]): 1.2 fold | IC50 (Ca^2+ channel): 127 µM

COc1ccc(S(=O)(=O)N(CCO)c2ccccc2CN(C)C/C=C/c2ccc(Cl)cc2)cc1 [KN93]
effect on L444P GC activity (L444P GC; IP3R inhibitors (FIG. 33)): None of the compounds enhanced L444P GC activity

CC(=O)N[C@H]1C(O)N[C@H](CO)[C@H](O)[C@@H]1O (stereo partly drawn) [ADNJ, 2-Acetamido-2-deoxynojirimycin]
Hex α-site activity as % of cellular WT Hex α-site activity (G269S/1278insTATC HexA): 25% | cellular Hex α-site activity, fold increase (G269S/1278insTATC HexA): 2.5 fold

CN(C)CCN1C(=O)[C@H](O)[C@H](c2ccc(O)cc2)Sc2ccccc21 [Compound 3, (2S,3S)-5-[2-(Dimethylamino)ethyl]-2,3-dihydro-3-hydroxy-2-(4-hydroxyphenyl)-1,5-benzothiazepin-4(5H)-one]
L444P GC activity, maximum fold increase (L444P GC; [1]): 1.3 fold | IC50 (Ca^2+ channel): 45.5 µM

CC(=O)N[C@@H](CSC(=O)[C@]1([C@@H](O)C(C)C)NC(=O)[C@H](C)[C@@H]1O)C(=O)O [lactacystin]
GC proteostasis regulator function (L444P GC; L444P GC cells): not a GC proteostasis regulator

C/C=C(/C)C(=O)O[C@H]1C(C)=C2[C@H]([C@@H]1OC(=O)CCCCCCC)[C@@](C)(OC(C)=O)C[C@H](OC(=O)CCC)[C@@]1(O)[C@H]2OC(=O)[C@@]1(C)O [thapsigargin]
effect on L444P GC folding, trafficking and lysosomal activity (L444P GC; thapsigargin (FIG. 25)): does not enhance | concentration above which L444P GC activity is decreased significantly (L444P GC; thapsigargin alone, 7-day incubation): > 1 nM | effect on GC activity in L444P GC cells (L444P GC; varying concentrations co-applied with 10 μM diltiazem, 7 days): dose-dependent decrease of GC activity

C1CCCC2CCCN3CCC(CCCCCCC4CCCN5CCC(CC1)OC45)OC23 (stereo not drawn) [XeC]
effect on L444P GC activity (L444P GC; IP3R inhibitors (FIG. 33)): None of the compounds enhanced L444P GC activity

C[CH2][Hg][S]c1ccccc1C(=O)[O-].[Na+] [thimerosal]
effect on L444P GC activity (L444P GC; IP3R inhibitors (FIG. 33)): None of the compounds enhanced L444P GC activity

COc1ccc([C@@H]2Sc3ccccc3NC(=O)[C@@H]2O)cc1 [Compound 6]
effect on L444P GC activity (L444P GC; 0.3 to 100 μM, 7 days, intact cell GC activity assay (FIG. 19D)): do not increase L444P GC activity | Ca^2+ channel antagonist activity (Ca^2+ channel; according to reported SAR studies, lack basic amino nitrogen pharmacophore): not Ca^2+ channel antagonists

C=C[C@H]1C[N@@]2CC[C@H]1C[C@H]2[C@H](O)c1ccnc2ccc(OC)cc12 [quinine]
effect on L444P GC activity (L444P GC; IP3R inhibitors (FIG. 33)): None of the compounds enhanced L444P GC activity

CCN(CC)CCCC(C)Nc1ccnc2cc(Cl)ccc12 (stereo not drawn) [chloroquinine]
effect on L444P GC activity (L444P GC; IP3R inhibitors (FIG. 33)): None of the compounds enhanced L444P GC activity
